The source made the active and inactive calls. The rule behind the calls is not given here.
Tests used:
[1] = biological target: Envelope glycoprotein gp160 (Human immunodeficiency virus 1) (UniProt Q6QLK5); assay: Binding affinity to HIV1JRFL envelope glycoprotein expressed in human HOS cells assessed as fold change in binding to CoRBS 17b incubated for 1 hrs by cell based ELISA relative to BNM-III-170; details: JRFL
[2] = biological target: Envelope glycoprotein gp160 (Human immunodeficiency virus 1, UniProt Q6QLK5); assay: Binding affinity to HIV1 YU-2 gp120 by isothermal titration calorimetric analysis
[3] = test system: Human immunodeficiency virus 1; assay: Induction of sensitization to HIV-1CH58TF infected in CD4-positive T cells assessed as […] cellular cytotoxicity at 50 uM incubated for 4 to 6 hrs by AquaVivid/eFluor670 staining based by flow cytometric analysis; assay type: functional, organism-based

Chain of Envelope glycoprotein gp160 (Human immunodeficiency virus 1) (Q6QLK5 1-814): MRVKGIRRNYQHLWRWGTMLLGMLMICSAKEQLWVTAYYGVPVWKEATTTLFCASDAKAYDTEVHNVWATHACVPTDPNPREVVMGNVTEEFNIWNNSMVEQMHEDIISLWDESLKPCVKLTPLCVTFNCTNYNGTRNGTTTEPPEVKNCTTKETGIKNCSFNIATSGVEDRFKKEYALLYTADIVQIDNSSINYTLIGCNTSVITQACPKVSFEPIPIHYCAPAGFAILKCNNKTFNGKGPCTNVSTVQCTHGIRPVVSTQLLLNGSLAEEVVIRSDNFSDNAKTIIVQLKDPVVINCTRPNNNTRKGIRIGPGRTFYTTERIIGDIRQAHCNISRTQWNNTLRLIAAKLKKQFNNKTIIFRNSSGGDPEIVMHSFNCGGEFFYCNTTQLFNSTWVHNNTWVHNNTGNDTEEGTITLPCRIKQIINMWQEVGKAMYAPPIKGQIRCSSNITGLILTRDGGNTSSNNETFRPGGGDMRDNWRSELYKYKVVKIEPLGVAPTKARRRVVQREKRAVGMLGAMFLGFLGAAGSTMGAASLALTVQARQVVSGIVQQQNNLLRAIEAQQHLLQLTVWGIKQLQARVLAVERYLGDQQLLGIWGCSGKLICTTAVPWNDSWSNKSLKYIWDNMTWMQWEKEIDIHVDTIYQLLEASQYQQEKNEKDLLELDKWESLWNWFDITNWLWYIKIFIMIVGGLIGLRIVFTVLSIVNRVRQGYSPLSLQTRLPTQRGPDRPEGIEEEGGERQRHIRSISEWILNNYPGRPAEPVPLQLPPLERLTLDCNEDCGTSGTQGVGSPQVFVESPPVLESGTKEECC
Chain of Envelope glycoprotein gp160 (Q6QLK5 whole entry): as the sequence (Q6QLK5 1-814) above

## O=C(Nc1ccc(Cl)c(F)c1)[C@@H]1CCCOC1
[1]
  fold change (FC): 0.28

## CS(=O)(=O)N1CCC(C(=O)Nc2ccc(Cl)c(F)c2)CC1
[1]
  fold change (FC): 0.21

## CS(=O)(=O)N1CCC[C@H](C(=O)Oc2ccc(Cl)c(F)c2)C1
[1]
  fold change (FC): 0.07

## CS(=O)(=O)N1CCC[C@@H](C(=O)Nc2ccc(Cl)cc2)C1
[1]
  fold change (FC): 0.08

## NCCOC(=O)N1C[C@H](N)C[C@H](C(=O)Nc2ccc(Cl)c(F)c2)C1
[1]
  fold change (FC): 0.07

## NCCCNC(=O)N1CCC[C@H](C(=O)Nc2ccc(Cl)c(F)c2)C1
[1]
  fold change (FC): 0.25

## O=C(Nc1ccc(Cl)c(F)c1)[C@H]1CCCOC1
[1]
  fold change (FC): 0.58

## CS(=O)(=O)N1CCC[C@H](C(=O)Nc2ccc(Cl)cc2)C1
[1]
  fold change (FC): 0.31
[2]
  Kd: > 10000 nM

## O=C(Nc1ccc(Cl)c(F)c1)C1CCCOC1 (racemic)
[1]
  fold change (FC): 0.48

## CCS(=O)(=O)N1CCCC(C(=O)Nc2ccc(Cl)c(F)c2)C1 (racemic)
[1]
  fold change (FC): 0.42

## CS(=O)(=O)N1CCCC(NC(=O)c2ccc(Cl)c(F)c2)C1 (racemic)
[1]
  fold change (FC): 0.08

## CS(=O)(=O)N1CCOC(C(=O)Nc2ccc(Cl)c(F)c2)C1 (racemic)
[1]
  fold change (FC): 0.28

## O=C(Nc1ccc(Cl)c(F)c1)[C@H]1CCCN(S(=O)(=O)c2ccccc2)C1
[1]
  fold change (FC): 0.45

## COC(=O)N1CCC[C@H](C(=O)Nc2ccc(Cl)c(F)c2)C1
[3]
  Activity: Active
[1]
  fold change (FC): 0.5
[2]
  Kd: 1800 nM

## CS(=O)(=O)N1CCC[C@H](C(=O)Nc2ccc(Br)cc2)C1
[1]
  fold change (FC): 0.36

## CCCNC(=O)N1CCC[C@H](C(=O)Nc2ccc(Cl)c(F)c2)C1
[3]
  Activity: Active
[1]
  fold change (FC): 0.55

## NCCNC(=O)N1CCC[C@H](C(=O)Nc2ccc(Cl)c(F)c2)C1
[3]
  Activity: Active
[1]
  fold change (FC): 0.58

## CS(=O)(=O)N1CC(C(=O)Nc2ccc(Cl)c(F)c2)Cc2ccccc21 (racemic)
[1]
  fold change (FC): 0.24

## CCOC(=O)N1CCC[C@H](C(=O)Nc2ccc(Cl)c(F)c2)C1
[3]
  Activity: Active
[1]
  fold change (FC): 0.53
[2]
  Kd: 770 nM

## CS(=O)(=O)N1CCC(C(=O)Nc2ccc(Cl)c(F)c2)C1 (racemic)
[1]
  fold change (FC): 0.36

## CCCNC(=N)N1CCC[C@H](C(=O)Nc2ccc(Cl)c(F)c2)C1
[1]
  fold change (FC): 0.85

## CS(=O)(=O)N1CCC[C@H](C(=O)Nc2ccc(Cl)c(F)c2)C1
[3]
  Activity: Active
[1]
  fold change (FC): 0.58
[2]
  Kd: 2800 nM

## CCCNC(=O)N1C[C@H](N)C[C@H](C(=O)Nc2ccc(Cl)c(F)c2)C1
[1]
  fold change (FC): 0.11

## NCCNC(=O)N1C[C@H](N)C[C@H](C(=O)Nc2ccc(Cl)c(F)c2)C1
[1]
  fold change (FC): 0.06

## CCS(=O)(=O)N1CCC[C@H](C(=O)Nc2ccc(Cl)c(F)c2)C1
[1]
  fold change (FC): 0.35

## NCCCNC(=O)N1C[C@H](N)C[C@H](C(=O)Nc2ccc(Cl)c(F)c2)C1
[1]
  fold change (FC): 0.06

## CC(C)COC(=O)N1CCC[C@H](C(=O)Nc2ccc(Cl)c(F)c2)C1
[1]
  fold change (FC): 0.62

## CCCOC(=O)N1CCC[C@H](C(=O)Nc2ccc(Cl)c(F)c2)C1
[1]
  fold change (FC): 0.51

## CS(=O)(=O)N1CCNC(C(=O)Nc2ccc(Cl)c(F)c2)C1 (racemic)
[1]
  fold change (FC): 0.1

— ChEMBL document CHEMBL4342492, “Optimization of Small Molecules That Sensitize HIV-1 Infected Cells to Antibody-Dependent Cellular Cytotoxicity” (ACS Med Chem Lett, 2020)
